Results reported in patent US11814375B2, “Heterocyclic compounds” (Hoffmann-La Roche Inc., priority 2019, dated 2023).

molecular target: T1, MAGL (Homo sapiens, UniProt Q99685); assay: 2-AG assay: MAGL inhibitory activity by hydrolysis of 2-arachidonoylglycerol to arachidonic acid, followed by mass spectrometry; format: biochemical; conditions: 8 μM 2-arachidonoylglycerol, 15 min preincubation and 30 min reaction at RT, arachidonic acid/d8-arachidonic acid ratio by MS
T1 sequence (Q99685 1-303): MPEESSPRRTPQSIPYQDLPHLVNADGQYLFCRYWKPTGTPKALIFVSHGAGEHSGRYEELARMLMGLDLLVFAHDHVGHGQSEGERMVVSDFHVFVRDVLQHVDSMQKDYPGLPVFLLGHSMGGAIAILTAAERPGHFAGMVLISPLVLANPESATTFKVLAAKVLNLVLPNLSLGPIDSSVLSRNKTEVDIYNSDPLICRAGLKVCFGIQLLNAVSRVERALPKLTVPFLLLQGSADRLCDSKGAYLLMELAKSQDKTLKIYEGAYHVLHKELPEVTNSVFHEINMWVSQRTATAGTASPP
Description: Compounds of formula (I) were profiled for MAGL inhibitory activity by determining the enzymatic activity by following the hydrolysis of the natural substrate 2-arachidonoylglycerol (2-AG) resulting in arachidonic acid, which can be followed by mass spectrometry. This assay is hereinafter abbreviated “2-AG assay”.
The 2-AG assay was carried out in 384 well assay plates (PP, Greiner Cat #784201) in a total volume of 20 μL. Compound dilutions were made in 100% DMSO (VWR Chemicals 23500.297) in a polypropylene plate in 3-fold dilution steps to give a final concentration range in the assay from 12.5 μM to […]. 0.25 μL compound dilutions (100% DMSO) were added to 9 μL MAGL in assay buffer (50 mM TRIS (GIBCO, 15567-027), 1 mM EDTA (Fluka, 03690-100 mL), 0.01% (v/v) Tween. After shaking, the plate was incubated for 15 min at RT. To start the reaction, 10 μL 2-arachidonoylglycerol in assay buffer was added. The final concentrations in the assay was […] and 8 μM 2-arachidonoylglyerol. After shaking and 30 min incubation at RT, the reaction was quenched by the addition of 40 μL of ACN containing 4 μM of d8-arachidonic acid. The amount of arachidonic acid was traced by an online SPE system (Agilent Rapidfire) coupled to a triple quadrupole mass spectrometer (Agilent 6460). A C18 SPE cartridge (G9205A) was used in an ACN/water liquid setup. The mass spectrometer was operated in negative electrospray mode following the mass transitions 303.1→259.1 for arachidonic acid and 311.1→267.0 for d8-arachidonic acid. The activity of the compounds was calculated based on the ratio of intensities [arachidonic acid/d8-arachidonic acid].

| IC50 | Compound |
| --- | --- |
| 6.3 nM | O=C1CO[C@H]2CCN(C(=O)N3CC(c4ccc(Oc5ccncc5F)cc4)C3)C[C@H]2N1 [Example 28, (+)-(4aR,8aS)-6-[3-[4-[(3-Fluoro-4-pyridyl)oxy]phenyl]azetidine-1-carbonyl]-4,4a,5,7,8,8a-hexahydropyrido[4,3-b][1,4]oxazin-3-one] |
| 0.02 nM | O=C1CO[C@H]2CCN(C(=O)N3CC(c4ccc(Oc5ccccc5Cl)cc4)C3)C[C@H]2N1 [Example 2, (4aR,8aS)-6-[3-[4-(2-Chlorophenoxy)phenyl]azetidine-1-carbonyl]-4,4a,5,7,8,8a-hexahydropyrido[4,3-b][1,4]oxazin-3-one] |
| 0.11 nM | O=C1CO[C@H]2CCN(C(=O)N3CC(c4ccc(Oc5cccc(F)c5)cc4)C3)C[C@H]2N1 [Example 15, (+)-(4aR,8aS)-6-[3-[4-(3-Fluorophenoxy)phenyl]azetidine-1-carbonyl]-4,4a,5,7,8,8a-hexahydropyrido[4,3-b][1,4]oxazin-3-one] |
| 0.2 nM | N#Cc1ccccc1Oc1ccc(C2CN(C(=O)N3CC[C@@H]4OCC(=O)N[C@@H]4C3)C2)cc1 [Example 23, (+)-2-[4-[1-[(4aR,8aS)-3-Oxo-4,4a,5,7,8,8a-hexahydropyrido[4,3-b][1,4]oxazine-6-carbonyl]azetidin-3-yl]phenoxy]benzonitrile] |
| 4.3 nM | O=C1CO[C@H]2CCN(C(=O)N3CC(c4ccc(Oc5cncc(F)c5)cc4)C3)C[C@H]2N1 [Example 8, (+)-(4aR,8aS)-6-[3-[4-[(5-Fluoro-3-pyridyl)oxy]phenyl]azetidine-1-carbonyl]-4,4a,5,7,8,8a-hexahydropyrido[4,3-b][1,4]oxazin-3-one] |
| 13.4 nM | O=C1CO[C@H]2CCN(C(=O)N3CC(c4ccc(Oc5nccc(C(F)(F)F)n5)cc4)C3)C[C@H]2N1 [Example 14, (+)-(4aR,8aS)-6-[3-[4-[4-(Trifluoromethyl)pyrimidin-2-yl]oxyphenyl]azetidine-1-carbonyl]-4,4a,5,7,8,8a-hexahydropyrido[4,3-b][1,4]oxazin-3-one] |
| 0.05 nM | O=C1CO[C@H]2CCN(C(=O)N3CC(c4ccc(Oc5ccccc5F)cc4)C3)C[C@H]2N1 [Example 18, (+)-(4aR,8aS)-6-[3-[4-(2-fluorophenoxy)phenyl]azetidine-1-carbonyl]-4,4a,5,7,8,8a-hexahydropyrido[4,3-b][1,4]oxazin-3-one] |
| 0.06 nM | O=C1CO[C@H]2CCN(C(=O)N3CC(c4ccc(Oc5cccc(C(F)(F)F)c5)cc4)C3)C[C@H]2N1 [Example 22, (+)-(4aR,8aS)-6-[3-[4-[3-(Trifluoromethyl)phenoxy]phenyl]azetidine-1-carbonyl]-4,4a,5,7,8,8a-hexahydropyrido[4,3-b][1,4]oxazin-3-one] |

Continued, molecule first:

| Compound | IC50 |
| --- | --- |
| CC(C)(C)Cc1nnc(-c2ccc(C3CN(C(=O)N4CC[C@@H]5OCC(=O)N[C@@H]5C4)C3)cc2)o1 [Example 38, (4aR,8aS)-6-[3-[4-[5-(2,2-Dimethylpropyl)-1,3,4-oxadiazol-2-yl]phenyl]azetidine-1-carbonyl]-4,4a,5,7,8,8a-hexahydropyrido[4,3-b][1,4]oxazin-3-one] | 8.5 nM |
| CC(C)(C)Cn1nccc1-c1ccc(C2CN(C(=O)N3CC[C@@H]4OCC(=O)N[C@@H]4C3)C2)cc1 [Example 32a, (4aR,8aS)-6-[3-[4-[2-(2,2-Dimethylpropyl)pyrazol-3-yl]phenyl]azetidine-1-carbonyl]-4,4a,5,7,8,8a-hexahydropyrido[4,3-b][1,4]oxazin-3-one] | 0.2 nM |
| O=C1CO[C@H]2CCN(C(=O)N3CC(c4ccc(Oc5ccc(Cl)cc5)nc4)C3)C[C@H]2N1 [Example 50, (4aR,8aS)-6-(3-(6-(4-Chlorophenoxy)pyridin-3-yl)azetidine-1-carbonyl)hexahydro-2H-pyrido[4,3-b][1,4]oxazin-3(4H)-one] | 4.3 nM |
| O=C1CO[C@H]2CCN(C(=O)N3CC(O)(c4ccc(Oc5ccccc5)cc4)C3)C[C@H]2N1 [Example 55, (4aR,8aS)-6-[3-Hydroxy-3-(4-phenoxyphenyl)azetidine-1-carbonyl]-4,4a,5,7,8,8a-hexahydropyrido[4,3-b][1,4]oxazin-3-one] | 10.3 nM |
| O=C1CO[C@H]2CCN(C(=O)N3CC(c4ccc(Oc5ccccc5Cl)nc4)C3)C[C@H]2N1 [Example 52, (4aR,8aS)-6-(3-(6-(2-Chlorophenoxy)pyridin-3-yl)azetidine-1-carbonyl)hexahydro-2H-pyrido[4,3-b][1,4]oxazin-3(4H)-one] | 1.3 nM |
| Cc1ncccc1Oc1ccc(C2CN(C(=O)N3CC[C@@H]4OCC(=O)N[C@@H]4C3)C2)cc1 [Example 4, (4aR,8aS)-6-[3-[4-[(2-Methyl-3-pyridyl)oxy]phenyl]azetidine-1-carbonyl]-4,4a,5,7,8,8a-hexahydropyrido[4,3-b][1,4]oxazin-3-one] | 2.5 nM |
| Cc1cc(Oc2ccc(C3CN(C(=O)N4CC[C@@H]5OCC(=O)N[C@@H]5C4)C3)cc2)c(C)nn1 [Example 51, (4aR,8aS)-6-[3-[4-(3,6-Dimethylpyridazin-4-yl)oxyphenyl]azetidine-1-carbonyl]-4,4a,5,7,8,8a-hexahydropyrido[4,3-b][1,4]oxazin-3-one] | 124 nM |
| O=C1CO[C@H]2CCN(C(=O)N3CC(c4ccc(Oc5ccc(F)cc5)nc4)C3)C[C@H]2N1 [Example 48, (4aR,8aS)-6-(3-(6-(4-Fluorophenoxy)pyridin-3-yl)azetidine-1-carbonyl)hexahydro-2H-pyrido[4,3-b][1,4]oxazin-3(4H)-one] | 31.5 nM |
| CS(=O)(=O)c1nccc(Oc2ccc(C3CN(C(=O)N4CC[C@@H]5OCC(=O)N[C@@H]5C4)C3)cc2)n1 [Example 29, (+)-(4aR,8aS)-6-[3-[4-(2-Methylsulfonylpyrimidin-4-yl)oxyphenyl]azetidine-1-carbonyl]-4,4a,5,7,8,8a-hexahydropyrido[4,3-b][1,4]oxazin-3-one] | 90.9 nM |
| O=C1CO[C@H]2CCN(C(=O)N3CC(c4ccc(-c5ccn[nH]5)cc4)C3)C[C@H]2N1 [Example 31, (4aR,8aS)-6-[3-[4-(1H-Pyrazol-5-yl)phenyl]azetidine-1-carbonyl]-4,4a,5,7,8,8a-hexahydropyrido[4,3-b][1,4]oxazin-3-one] | 91.9 nM |
| Cc1ccnc(Oc2ccc(C3CN(C(=O)N4CC[C@@H]5OCC(=O)N[C@@H]5C4)C3)cc2)n1 [Example 5, (+)-(4aR,8aS)-6-[3-[4-(4-Methylpyrimidin-2-yl)oxyphenyl]azetidine-1-carbonyl]-4,4a,5,7,8,8a-hexahydropyrido[4,3-b][1,4]oxazin-3-one] | 23.8 nM |
| Cn1cc(-c2ccc(C3CN(C(=O)N4CC[C@@H]5OCC(=O)N[C@@H]5C4)C3)cc2)cn1 [Example 45, (4aR,8aS)-6-[3-[4-(1-Methylpyrazol-4-yl)phenyl]azetidine-1-carbonyl]-4,4a,5,7,8,8a-hexahydropyrido[4,3-b][1,4]oxazin-3-one] | 134 nM |
| O=C1CO[C@H]2CCN(C(=O)N3CC(c4ccc(Oc5ccnc(Cl)n5)cc4)C3)C[C@H]2N1 [Example 24, (+)-(4aR,8aS)-6-[3-[4-(2-Chloropyrimidin-4-yl)oxyphenyl]azetidine-1-carbonyl]-4,4a,5,7,8,8a-hexahydropyrido[4,3-b][1,4]oxazin-3-one] | 0.04 nM |
| O=C1CO[C@H]2CCN(C(=O)N3CC(c4ccc(Oc5ncccn5)cc4)C3)C[C@H]2N1 [Example 3, (4aR,8aS)-6-[3-(4-Pyrimidin-2-yloxyphenyl)azetidine-1-carbonyl]-4,4a,5,7,8,8a-hexahydropyrido[4,3-b][1,4]oxazin-3-one] | 75.4 nM |
| O=C1CO[C@H]2CCN(C(=O)N3CC(c4ccc(-c5ccc(F)nc5)cc4)C3)C[C@H]2N1 [Example 43, (4aR,8aS)-6-[3-[4-(6-Fluoropyridin-3-yl)phenyl]azetidine-1-carbonyl]-4,4a,5,7,8,8a-hexahydropyrido[4,3-b][1,4]oxazin-3-one] | 19.3 nM |
| O=C1CO[C@H]2CCN(C(=O)N3CC(c4ccc(-c5ncccc5Cl)cc4)C3)C[C@H]2N1 [Example 33, (4aR,8aS)-6-[3-[4-(3-Chloro-2-pyridyl)phenyl]azetidine-1-carbonyl]-4,4a,5,7,8,8a-hexahydropyrido[4,3-b][1,4]oxazin-3-one] | 2.7 nM |
| Cc1nc(C)c(-c2ccc(C3CN(C(=O)N4CC[C@@H]5OCC(=O)N[C@@H]5C4)C3)cc2)o1 [Example 34, (4aR,8aS)-6-[3-[4-(2,4-Dimethyloxazol-5-yl)phenyl]azetidine-1-carbonyl]-4,4a,5,7,8,8a-hexahydropyrido[4,3-b][1,4]oxazin-3-one] | 22.9 nM |
